Molecular target: Endothelial lipase (EL) (Homo sapiens (Human), UniProt Q9Y5X9)
Assay: Endothelial lipase (EL) enzymatic assay with fluorescent substrate A10070 in DMPG vesicles
Type: biochemical
Procedure, shortened: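 Compounds were preincubated with enzyme for 30 min at 37° C before FRET-substrate vesicles (A10070 in DMPG, 0.11 mole fraction) were added. Reaction rates were obtained from the 300–900 sec slope of fluorescence at 490/530 nm.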

Sequence of Endothelial lipase (EL) (Q9Y5X9 21-500): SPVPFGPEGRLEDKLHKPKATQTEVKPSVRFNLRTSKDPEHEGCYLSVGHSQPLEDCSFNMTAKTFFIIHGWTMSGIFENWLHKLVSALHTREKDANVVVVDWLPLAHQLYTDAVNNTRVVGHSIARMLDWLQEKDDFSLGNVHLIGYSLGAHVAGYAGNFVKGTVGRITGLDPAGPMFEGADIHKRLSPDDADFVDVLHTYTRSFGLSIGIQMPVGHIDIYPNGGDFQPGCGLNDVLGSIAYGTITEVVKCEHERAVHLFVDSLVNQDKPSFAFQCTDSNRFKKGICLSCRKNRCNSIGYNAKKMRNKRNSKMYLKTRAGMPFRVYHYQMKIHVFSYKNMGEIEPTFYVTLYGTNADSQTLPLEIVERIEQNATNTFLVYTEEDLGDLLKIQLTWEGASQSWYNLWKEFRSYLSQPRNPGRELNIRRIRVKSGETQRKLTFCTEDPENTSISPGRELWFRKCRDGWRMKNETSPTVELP

Row | SMILES | IC50 [nM]
1 | COC(=O)Nc1ccc(-c2cc3sc(C(C(=O)NCC(=O)NC4CC4)S(C)(=O)=O)nc3cc2F)cc1 (centres unmarked) [Example 120, methyl N-{4-[2-({[(cyclopropyl-carbamoyl)methyl]carbamoyl} (methanesulfonyl)methyl)-5-fluoro-1,3-benzothiazol-6-yl]phenyl} carbamate] | 4
2 | CS(=O)(=O)C(C(=O)NCC(=O)NC1CC1)c1nc2c(Cl)cc(-c3ccc(F)nc3)cc2s1 (centres unmarked) [Example 121, 2-[4-chloro-6-(6-fluoropyridin-3-yl)-1,3-benzothiazol-2-yl]-N-[(cyclopropyl-carbamoyl)methyl]-2-methanesulfonyl-acetamide] | 14
3 | COC(=O)Nc1ccc(-c2cc3nc(C(C(=O)NCC(=O)NC4CC4)S(C)(=O)=O)sc3cc2F)cc1F (centres unmarked) [Example 122, methyl N-{4-[2-({[(cyclopropyl-carbamoyl)methyl]carbamoyl} (methanesulfonyl)methyl)-6-fluoro-1,3-benzothiazol-5-yl]-2-fluorophenyl} carbamate] | 7
4 | COC(=O)Nc1cccc(-c2cc3nc(C(C(=O)NCC(=O)NC4CC4)S(C)(=O)=O)sc3cc2F)c1 (centres unmarked) [Example 123, methyl N-{3-[2-({[(cyclopropyl-carbamoyl)methyl]carbamoyl} (methanesulfonyl)methyl)-6-fluoro-1,3-benzothiazol-5-yl]phenyl} carbamate] | 5
5 | COC(=O)Nc1ccc(-c2cc(Cl)c3nc(C(C(=O)NCC(=O)NC4CC4)S(C)(=O)=O)sc3c2)cc1F (centres unmarked) [Example 124, methyl N-{4-[4-chloro-2-({[(cyclopropyl-carbamoyl)methyl]carbamoyl} (methanesulfonyl)methyl)-1,3-benzothiazol-6-yl]-2-fluorophenyl} carbamate] | 2
6 | COC(=O)Nc1ccc(-c2cc(Cl)c3nc(C(C(=O)NCC(=O)NC4CC4)S(C)(=O)=O)sc3c2)cc1 (centres unmarked) [Example 125, methyl N-{4-[4-chloro-2-({[(cyclopropyl-carbamoyl)methyl]carbamoyl} (methanesulfonyl)methyl)-1,3-benzothiazol-6-yl]phenyl} carbamate] | 2
7 | Cc1ncc(-c2ccc3sc(C(C(=O)NCC(=O)NC4CC4)S(C)(=O)=O)nc3c2F)cn1 (centres unmarked) [Example 126, N-[(cyclopropyl-carbamoyl)methyl]-2-[4-fluoro-5-(2-methylpyrimidin-5-yl)-1,3-benzothiazol-2-yl]-2-methanesulfonyl-acetamide] | 137
8 | CS(=O)(=O)C(C(=O)NCC(=O)NC1CC1)c1nc2c(F)c(-c3ccc(NC(=O)OCc4ccccc4)cc3)ccc2s1 (centres unmarked) [Example 127, benzyl N-{4-[2-({[(cyclopropyl-carbamoyl)methyl]carbamoyl} (methanesulfonyl)methyl)-4-fluoro-1,3-benzothiazol-5-yl]phenyl} carbamate] | 3
9 | COCCS(=O)(=O)C(C(=O)NCC(=O)NC1CC1)c1nc2cc(-c3ccc(-c4nnn[nH]4)cc3)c(F)cc2s1 (centres unmarked) [Example 128, N-[(cyclopropyl-carbamoyl)methyl]-2-{6-fluoro-5-[4-(1H-1,2,3,4-tetrazol-5-yl)phenyl]-1,3-benzothiazol-2-yl}-2-(2-methoxyethane-sulfonyl) acetamide] | 97
10 | COCCS(=O)(=O)C(C(=O)NCC(=O)NC1CC1)c1nc2cc(-c3cccc(-c4cc[nH]n4)c3)c(F)cc2s1 (centres unmarked) [Example 129, N-[(cyclopropyl-carbamoyl)methyl]-2-{6-fluoro-5-[3-(1H-pyrazol-3-yl)phenyl]-1,3-benzothiazol-2-yl}-2-(2-methoxyethane-sulfonyl) acetamide] | 12
11 | COCCS(=O)(=O)C(C(=O)NCC(=O)NC1CC1)c1nc2cc(-c3ccc(-c4ccn[nH]4)cc3)c(F)cc2s1 (centres unmarked) [Example 130, N-[(cyclopropyl-carbamoyl)methyl]-2-{6-fluoro-5-[4-(1H-pyrazol-5-yl)phenyl]-1,3-benzothiazol-2-yl}-2-(2-methoxyethane-sulfonyl) acetamide] | 18

From US10173991B2, “Sulfone amide linked benzothiazole inhibitors of endothelial lipase” (BRISTOL-MYERS SQUIBB COMPANY, priority 2014, dated 2019)
